For 35 molecules, IC50 results are on record in US20230357162A1, “COMPOUNDS, COMPOSITIONS AND METHODS” (Denali Therapeutics Inc., priority 2020, published 2023).

The assay concerns IL-1β secretion, THP-1 cells. Briefly: IL-1β secretion assay in PMA-differentiated THP-1 cells stimulated with LPS and nigericin (ELISA readout). The note with it: Homo sapiens, THP-1, inhibition of IL-1β secretion, 25 ng/mL LPS then nigericin. The format is cell-based. In short, it runs like this:
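THP-1 cells differentiated with 5 ng/mL PMA for 40 h, primed in serum-free medium with 25 ng/mL LPS for 2 h, then compound (0.5% DMSO) for 1 h before nigericin for 2 h at 37°C. Supernatant IL-1β quantified by ELISA; normalized to high (LPS + 5 µM nigericin) and low (LPS only) controls.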

Turning to `CC(C)c1nn(CC(=O)Nc2ccc(C3CC3)cn2)c(=O)c2ccc(Br)cc12` [Example 111, 2-(6-bromo-1-oxo-4-propan-2-ylphthalazin-2-yl)-N-(5-cyclopropylpyridin-2-yl)acetamide], the IC50 is, setting by setting: (class column of Table 3) less than 10 µM; (numeric column of Table 3) 0.796 µM.

For `CC(C)c1nn(CC(=O)Nc2cnc(Cl)c(F)c2)c(=O)c2ccc(Br)cc12` [Example 112, 2-(6-bromo-1-oxo-4-propan-2-ylphthalazin-2-yl)-N-(6-chloro-5-fluoropyridin-3-yl)acetamide], the IC50 is, setting by setting: (class column of Table 3) less than 10 µM; (numeric column of Table 3) 1.12 µM.

Take `CC(C)c1nn(CC(=O)Nc2ncc(F)cn2)c(=O)c2ccc(Br)cc12` [Example 113, 2-(6-bromo-1-oxo-4-propan-2-ylphthalazin-2-yl)-N-(5-fluoropyrimidin-2-yl)acetamide]: the half-inhibitory concentration (IC50) is, setting by setting: (class column of Table 3) less than 10 µM; (numeric column of Table 3) 0.035 µM.

Consider `CC(C)c1nn(CC(=O)Nc2ncc(F)cc2C#N)c(=O)c2ccc(Br)cc12` [Example 114, 2-(6-bromo-1-oxo-4-propan-2-ylphthalazin-2-yl)-N-(3-cyano-5-fluoropyridin-2-yl)acetamide], for which the IC50 was less than 10 µM (class column of Table 3) and 1.77 µM (numeric column of Table 3).

Take `CC(C)c1nn(CC(=O)Nc2ncc(F)cc2Cl)c(=O)c2ccc(Br)cc12` [Example 115, 2-(6-bromo-1-oxo-4-propan-2-ylphthalazin-2-yl)-N-(3-chloro-5-fluoropyridin-2-yl)acetamide]: the IC50 was less than 10 µM (class column of Table 3) and 1.53 µM (numeric column of Table 3).

In the case of `CC(C)c1nn(CC(=O)Nc2cc(C(F)(F)F)nn2C)c(=O)c2ccc(Br)cc12` [Example 116, 2-(6-bromo-1-oxo-4-propan-2-ylphthalazin-2-yl)-N-[2-methyl-5-(trifluoromethyl)pyrazol-3-yl]acetamide], the IC50 by setting is: (class column of Table 3) less than 10 µM; (numeric column of Table 3) 4.6 µM.

`CC(C)c1nn(CC(=O)NC2CC(n3cccn3)C2)c(=O)c2ccc(Br)cc12` (stereo not shown) [Example 117, 2-(6-bromo-1-oxo-4-propan-2-ylphthalazin-2-yl)-N-(3-pyrazol-1-ylcyclobutyl)acetamide] yielded an IC50 (class column of Table 3) of less than 10 µM and an IC50 (numeric column of Table 3) of 6.45 µM.

On to `CC(C)c1nn(CC(=O)NC23CC(F)(C2)C3)c(=O)c2ccc(Br)cc12` [Example 118, 2-(6-bromo-1-oxo-4-propan-2-ylphthalazin-2-yl)-N-(3-fluoro-1-bicyclo[1.1.1]pentanyl)a cetamide], for which the IC50 runs as follows: (class column of Table 3) less than 10 µM; (numeric column of Table 3) 0.737 µM.

As to `CC(C)c1nn(CC(=O)Nc2ccc(C#N)cn2)c(=O)c2ccc(Br)cc12` [Example 119, 2-(6-bromo-1-oxo-4-propan-2-ylphthalazin-2-yl)-N-(5-cyanopyridin-2-yl)acetamide], the 50% inhibitory concentration (IC50) reads like this: (class column of Table 3) less than 10 µM; (numeric column of Table 3) 0.163 µM.

On to `CC(C)c1nn(CC(=O)Nc2ncc(Cl)cn2)c(=O)c2ccc(Br)cc12` [Example 120, 2-(6-bromo-1-oxo-4-propan-2-ylphthalazin-2-yl)-N-(5-chloropyrimidin-2-yl)acetamide], for which the IC50 is less than 10 µM (class column of Table 3) and 0.025 µM (numeric column of Table 3).

For `CC(C)c1nn(CC(=O)Nc2ccnnc2)c(=O)c2ccc(Br)cc12` [Example 121, 2-(6-bromo-1-oxo-4-propan-2-ylphthalazin-2-yl)-N-pyridazin-4-ylacetamide], the IC50 was less than 10 µM (class column of Table 3) and 0.423 µM (numeric column of Table 3).

With `CC(C)c1nn(CC(=O)Nc2cncc(F)c2)c(=O)c2ccc(Br)cc12` [Example 122, 2-(6-bromo-1-oxo-4-propan-2-ylphthalazin-2-yl)-N-(5-fluoropyridin-3-yl)acetamide], the IC50 is less than 10 µM (class column of Table 3) and 1.28 µM (numeric column of Table 3).

`CC(C)c1nn(CC(=O)Nc2ccnn2C2CCC2)c(=O)c2ccc(Br)cc12` [Example 123, 2-(6-bromo-1-oxo-4-propan-2-ylphthalazin-2-yl)-N-(2-cyclobutylpyrazol-3-yl)acetamide]: the IC50 is less than 10 µM (class column of Table 3) and 2.13 µM (numeric column of Table 3).

Turning to `Cc1cnc(NC(=O)Cn2nc(C(C)C)c3cc(Br)ccc3c2=O)c(F)c1` [Example 124, 2-(6-bromo-1-oxo-4-propan-2-ylphthalazin-2-yl)-N-(3-fluoro-5-methylpyridin-2-yl)acetamide], the IC50 is less than 10 µM (class column of Table 3) and 1.03 µM (numeric column of Table 3).

On to `CC(C)c1nn(CC(=O)NC2CCCOC2)c(=O)c2ccc(Br)cc12` (stereo not shown) [Example 125, 2-(6-bromo-1-oxo-4-propan-2-ylphthalazin-2-yl)-N-(oxan-3-yl)acetamide], for which the IC50 runs as follows: (class column of Table 3) less than 10 µM; (numeric column of Table 3) 3.06 µM.

Molecule `CC(C)c1nn(CC(=O)NC2CCC2)c(=O)c2ccc(Br)cc12` [Example 126, 2-(6-bromo-1-oxo-4-propan-2-ylphthalazin-2-yl)-N-cyclobutylacetamide] yielded an IC50 (class column of Table 3) of less than 10 µM and an IC50 (numeric column of Table 3) of 1.78 µM.

For `CC(C)c1nn(CC(=O)NCC2CCC2)c(=O)c2ccc(Br)cc12` [Example 127, 2-(6-bromo-1-oxo-4-propan-2-ylphthalazin-2-yl)-N-(cyclobutylmethyl)acetamide], the IC50 reads like this: (class column of Table 3) less than 10 µM; (numeric column of Table 3) 1.05 µM.

On to `CC(C)c1nn(CC(=O)NCc2ccnn2C)c(=O)c2ccc(Br)cc12` [Example 128, 2-(6-bromo-1-oxo-4-propan-2-ylphthalazin-2-yl)-N-[(2-methylpyrazol-3-yl)methyl]acetamide], for which the IC50 by setting is: (class column of Table 3) less than 10 µM; (numeric column of Table 3) 5.26 µM.

On to `CC(C)c1nn(CC(=O)NCc2ccccc2)c(=O)c2ccc(Br)cc12` [Example 129, N-benzyl-2-(6-bromo-1-oxo-4-propan-2-ylphthalazin-2-yl)acetamide], for which the IC50 is less than 10 µM (class column of Table 3) and 20.1 µM (numeric column of Table 3).

`CC(C)c1nn(CC(=O)NCC2CCCO2)c(=O)c2ccc(Br)cc12` (stereo not shown) [Example 130, 2-(6-bromo-1-oxo-4-propan-2-ylphthalazin-2-yl)-N-(oxolan-2-ylmethyl)acetamide]: the IC50 reads like this: (class column of Table 3) less than 10 µM; (numeric column of Table 3) 2.92 µM.

As to `O=C(Cn1nc(C(F)(F)F)c2cc(Br)ccc2c1=O)Nc1ncncc1F` [Example 131, 2-[6-bromo-1-oxo-4-(trifluoromethyl)phthalazin-2-yl]-N-(5-fluoropyrimidin-4-yl)acetamide], the IC50 runs as follows: (class column of Table 3) less than 10 µM; (numeric column of Table 3) 1.27 µM.

For `O=C(Cn1nc(C(F)(F)F)c2ccc(Br)cc2c1=O)Nc1ncncc1F` [Example 132, 2-[7-bromo-1-oxo-4-(trifluoromethyl)phthalazin-2-yl]-N-(5-fluoropyrimidin-4-yl)acetamide], the IC50 was greater than 15 µM (class column of Table 3) and greater than 50 µM (numeric column of Table 3).

With `N#Cc1cnc(NC(=O)Cn2nc(C(F)F)c3c(F)c(Br)ccc3c2=O)nc1` [Example 133], the IC50 (class column of Table 3) is less than 10 µM and the IC50 (numeric column of Table 3) is 0.109 µM.

Take `O=C(Cn1nc(C(F)F)c2cc(Br)ccc2c1=O)Nc1ncc(Cl)cc1F` [Example 134]: the IC50 runs as follows: (class column of Table 3) less than 10 µM; (numeric column of Table 3) 1.21 µM.

As to `O=C(Cn1nc(C(F)F)c2cc(Br)ccc2c1=O)Nc1ncc(Cl)cn1` [Example 135], the IC50 is, setting by setting: (class column of Table 3) less than 10 µM; (numeric column of Table 3) 0.424 µM.

As for `N#Cc1cnc(NC(=O)Cn2nc(C(F)F)c3cc(Br)ccc3c2=O)nc1` [Example 136], the IC50 by setting is: (class column of Table 3) less than 10 µM; (numeric column of Table 3) 0.181 µM.

As to `O=C(Cn1nc(OCF)c2cc(Br)ccc2c1=O)Nc1ncc(F)cn1` [Example 137, 2-[6-bromo-1-oxo-4-(fluoromethoxy)phthalazin-2-yl]-N-(5-fluoropyrimidin-2-yl)acetamide], the IC50 is less than 10 µM (class column of Table 3) and 0.186 µM (numeric column of Table 3).

Take `O=C(Cn1nc(OCC(F)(F)F)c2cc(Br)ccc2c1=O)Nc1ncc(F)cn1` [Example 138, 2-[6-bromo-1-oxo-4-(2,2,2-trifluoroethoxy)phthalazin-2-yl]-N-(5-fluoropyrimidin-2-yl)acetamide]: the IC50 (class column of Table 3) lay within 10 to 15 µM and the IC50 (numeric column of Table 3) worked out at 11.1 µM.

For the molecule `O=C(Cn1nc(C(F)CF)c2cc(Br)ccc2c1=O)Nc1ncc(F)cn1` (stereo not shown) [Example 139, 2-[6-bromo-4-(1,2-difluoroethyl)-1-oxophthalazin-2-yl]-N-(5-fluoropyrimidin-2-yl)acetamide], the 50% inhibitory concentration (IC50) reads like this: (class column of Table 3) less than 10 µM; (numeric column of Table 3) 0.318 µM.

With `COc1nn(CC(=O)Nc2ncc(F)cn2)c(=O)c2ccc(Br)c(F)c12` [Example 140, 2-(6-bromo-5-fluoro-4-methoxy-1-oxophthalazin-2-yl)-N-(5-fluoropyrimidin-2-yl)acetamide], the IC50 is less than 10 µM (class column of Table 3) and 0.087 µM (numeric column of Table 3).

On to `COc1c(Br)ccc2c(=O)n(CC(=O)Nc3ncc(F)cn3)nc(Cl)c12` [Example 141, 2-(6-bromo-4-chloro-5-methoxy-1-oxophthalazin-2-yl)-N-(5-fluoropyrimidin-2-yl)acetamide], for which the IC50 is less than 10 µM (class column of Table 3) and 1.2 µM (numeric column of Table 3).

As for `O=C(Cn1nc(CF)c2cc(Br)ccc2c1=O)Nc1ncc(F)cn1` [Example 142, 2-[6-bromo-4-(fluoromethyl)-1-oxophthalazin-2-yl]-N-(5-fluoropyrimidin-2-yl)acetamide], the IC50 (class column of Table 3) is less than 10 µM and the IC50 (numeric column of Table 3) came out at 0.091 µM.

On to `O=C(Cn1nc(CF)c2ccc(Br)cc2c1=O)Nc1ncc(F)cn1` [Example 143, 2-[7-bromo-4-(fluoromethyl)-1-oxophthalazin-2-yl]-N-(5-fluoropyrimidin-2-yl)acetamide], for which the IC50 runs as follows: (class column of Table 3) less than 10 µM; (numeric column of Table 3) 2.47 µM.

Turning to `CC(F)c1nn(CC(=O)Nc2ncc(F)cn2)c(=O)c2ccc(Br)c(F)c12` (stereo not shown) [Example 144, 2-[6-bromo-5-fluoro-4-(1-fluoroethyl)-1-oxophthalazin-2-yl]-N-(5-fluoropyrimidin-2-yl)acetamide], the IC50 by setting is: (class column of Table 3) less than 10 µM; (numeric column of Table 3) 0.191 µM.

In turn, `Cc1nn(CC(=O)Nc2ncc(F)cn2)c(=O)c2ccc(Br)c(F)c12` [Example 145] displayed an IC50 (class column of Table 3) of less than 10 µM and an IC50 (numeric column of Table 3) of 0.174 µM.
